Read-outs that look alike come from different tables or passages of the source.
Assays:
Format in all cases: in vivo
[1] = tested on: Alternaria solani (ALTESO); assay: Tomato early blight (ALTESO) whole-plant fungicidal test; details: 1 Day Protectant
Method: (§1) All fungicides were evaluated using the aforementioned method for their activity vs. all target diseases, unless stated otherwise. Wheat leaf blotch and brown rust activity were also evaluated using track spray applications, in which case the fungicides were formulated as EC formulations, containing 0.1% Trycol 5941 in the spray solutions. Wheat plants (variety Yuma) were grown from seed in a greenhouse in 50% mineral soil/50% soil-less Metro mix until the first leaf was fully emerged, with 7-10 seedlings per pot. These plants were inoculated with an aqueous spore suspension of Septoria tritici either prior to or after fungicide treatments. After inoculation the plants were kept in 100% relative humidity (one day in a dark dew chamber followed by two to three days in a lighted dew chamber at 20° C.) to permit spores to germinate and infect the leaf. The plants were then transferred to a greenhouse set at 20° C. for disease to develop. When disease symptoms were fully expressed on the 1st leaves of untreated plants, infection levels were assessed on a scale of 0 to 100 percent disease severity. Percent disease control was calculated using the ratio of disease severity on treated plants relative to untreated plants. Tomato plants (variety Outdoor Girl) were propagated in soil-less Metro mix, with each pot having one plant, and used when 12 to 14 days old. […]

[2] = tested on: Leptosphaeria nodorum (LEPTNO); assay: Wheat glume blotch (LEPTNO) whole-plant fungicidal test; details: 1 Day Protectant
[3] = tested on: Puccinia triticina; synonym: Puccinia recondita f. sp. tritici (PUCCRT); assay: Wheat brown rust (PUCCRT) whole-plant fungicidal test; details: topical, low volume (track spray) application, 121.5 g/H
[4] = tested on: Rhyncosporium secalis (RHYNSE); assay: Barley scald (RHYNSE) whole-plant fungicidal test; details: 1 Day Protectant
Method: as §1, with “Barley seedlings” for “Tomato plants”, “Harrington)” for “Outdoor Girl)”, “8 to 12 plants,” for “one plant,”, “used in the test” for “used”, “first leaf was fully emerged.” for “12 to 14 days old.”

[5] = tested on: Erysiphe cichoracearum (ERYSCI); assay: Powdery mildew of cucumber (ERYSCI) whole-plant fungicidal test; details: 1 Day Protectant

Question: What does the source list for `CCCC[C@@H]1[C@@H](Cc2ccc(C(F)(F)F)cc2)CCC[C@H](NC(=O)c2nccc(OC)c2OCOC(C)=O)C(=O)O[C@H]1C` [Compound 3]?
Answer: Disease Control at 100 ppm ALTESO 1DP [1]: A (>70); Disease Control at 100 ppm LEPTNO 1DP [2]: A (>70); pest or weed control at 121.5 g/ha ([3]; 24 h, 1 Day Protectant, read-out: Low Volume activity at 121.5 g/H PUCCRT 1DP (% disease control rating)): > 70%; pest or weed control at 121.5 g/ha ([3]; 72 h, 3 Day Curative, read-out: Low Volume activity at 121.5 g/H PUCCRT 3DC (% disease control rating)): < 70%; Disease Control at 100 ppm RHYNSE 1DP [4]: B (≦70); Disease Control at 100 ppm ERYSCI 1DP [5]: A (>70)

— patent publication US20150322051A1, “Macrocyclic picolinamides as fungicides” (Dow AgroSciences LLC, priority 2014, published 2015)
